From patent US10092620B2, “Uses of cyclic peptides for treating and preventing atherosclerosis” (THE SCRIPPS RESEARCH INSTITUTE, priority 2013, dated 2018) come the findings set out here.

Data set [1] deals with mouse macrophage J774 cells. The experiment in a line: cholesterol efflux from mouse macrophage cells incubated with peptide-treated human plasma. It is filed as cell-based. The settings on record: for promotion of cellular cholesterol efflux (in words): J774 cells, 2% apoB-depleted peptide-treated human plasma, 4 h, FIG. 2b. As for the experimental part: Selected cyclic D,L-α-peptides were further evaluated for their ability to promote cellular cholesterol efflux from mouse macrophage J774 cells. A main factor for HDL anti-atherogenicity is its role in reverse cholesterol transport, of which cellular cholesterol efflux is a critical component. To measure efflux mediated by the cyclic D,L-α-peptides, cholesterol-laden cells were incubated with peptide-treated plasma for 4 h, after which the level of cholesterol effluxed to the media was measured as described in Sankaranarayanan et al., J. Lipid Res. 52, 2332-2340, 2011.
Preparation of labeling medium: These procedures were modified from that reported in Sankaranarayanan et al., J. Lipid Res. 52, 2332-2340, 2011. The labeling medium was prepared by complexing the unlabeled cholesterol and BODIPY-cholesterol (20% of the total cholesterol) with methyl-β-cyclodextrin (CD) at a molar ratio of 1:40 (total cholesterol/CD). Unlabeled cholesterol and BODIPY-cholesterol were dissolved in chloroform and dried in a round bottom flask by rotor-evaporation in the dark to form a thin film. The cholesterol mixture was solubilized by adding 20 mM CD in MEM-HEPES buffer. The suspension was sonicated in a water bath (37° C.) for at 1 h, stirred at 37° C. for 3 h, filtered using a 0.45-μm syringe filter, and diluted with an equal volume of MEM-HEPES buffer containing 4 μg/mL Sandoz ACAT (acyl-CoA:cholesterol acyltransferase) inhibitor (Sigma). The final concentrations of BODIPY-cholesterol, unlabeled cholesterol, CD, and ACAT inhibitor in the labeling medium were 0.025 mM, 0.1 mM, 10 mM, and […], respectively.
Preparation of efflux medium: Just before the initiation of the efflux assays, the human plasma frozen at −80° C. was thawed, and 80 μL of plasma was incubated with 20 μL of cyclic peptide stocks (peptide stocks were 1-3 mg/mL in 10% sucrose) or the vehicle (10% sucrose) at 37° C. for 30 min. The treated plasma samples (100 μL) were then incubated with 25% PEG 8000 solution in 200 mM glycine buffer, pH 8.5 (40 μL) to precipitate apoB-containing lipoproteins (Asztalos et al., J. Lipid Res. 46, 2246-2253, 2005). After a 15-min incubation, the precipitate was removed by high-speed centrifugation (13,000 rpm, 10 min, 4° C.), and the supernatant (60 μL) was immediately diluted with MEM-HEPES buffer (1.5 mL) to give ˜2% whole plasma. This solution, containing the peptide remodeled-HDL lipoprotein fraction as cholesterol acceptors, was used as the efflux medium.
Cholesterol efflux from mouse macrophage cells: Mouse macrophage J774A.1 cells (TIB-67; American Type Culture Collection, Manassas, Va.) were seeded in 12-well culture plate at 3×10^5 cells/mL and cultured to 80-90% confluency in DMEM with 10% FBS at 5% CO2. Cells were rinsed twice with MEM-HEPES, incubated for 1 h with 0.25 ml of labeling medium containing CD/BODIPY-cholesterol/unlabeled cholesterol and 2 μg/mL Sandoz ACAT inhibitor, followed by washing twice with MEM-HEPES. The cholesterol-laden cells were equilibrated for 18 h in DMEM containing 5% LPDS, […] Sandoz ACAT inhibitor, and 0.3 mM Cpt-cAMP. After equilibration, the cells were washed twice with MEM-HEPES and incubated with 0.25 mL of efflux media for 4 h. At the end of the incubation time, the efflux media was removed and centrifuged (1200 rpm, 10 min) to remove floating cells, and the fluorescence intensity of 100 μL cell-free media was recorded using a Tecan GENios plate reader (excitation 485 nm, emission 535 nm). The obtained signals were background subtracted using the signal from unlabeled cells. The cell monolayers were rinsed twice with ice-cold MEM-HEPES and solubilized with 0.25 mL 1% cholic acid by shaking on a plate shaker for at least 4 h at room temperature; then the fluorescence intensity of 100 μL cell lysate was recorded and background subtracted using the signal from unlabeled cell lysate. […]

The next data set deals with human plasma HDL. The experiment in a line: human plasma HDL remodeling (NDGGE, immunoblot for human apoA-I). It is filed as biochemical. The following applies: human plasma in vitro; Western blot for apoA-I; FIGS. 1 and 2a. From the text:
As an initial phase of investigation, we evaluated in vitro the effectiveness of our cyclic D,L-α-peptides to remodel mature human plasma HDLs into lipid-poor HDL (FIG. 1 and FIG. 2a). Lipid-poor HDL particles are key acceptors of cholesterol in reverse cholesterol transport and are thus crucial for combating atherosclerosis. In fact, with respect to the cholesterol efflux capacity of human sera, the levels of lipid-poor HDL correlate much better than the levels of HDL-cholesterol or apoA-I. Briefly, our assay involved incubating human plasma with a peptide, after which the plasma sample was subjected to non-denaturing gradient gel electrophoresis (NDGGE) to separate the HDL subspecies and then immunoblotted for human apoA-I. The ranked activities of the cyclic D,L-α-peptides in promoting formation of lipid-poor HDL are shown in FIG. 1. It should be noted that there are inherent variabilities associated with electrophoretic transfer, staining, and densitometric quantitation, so the peptide ranking should be viewed as an approximate guide to relative plasma HDL remodeling efficacy. Nevertheless, the rankings were similar overall whether the panel was assayed by using peptide stock solutions prepared in 10% sucrose/H2O (FIGS. 1 and 2a) or peptide stock solutions prepared in 1:1 DMSO/H2O. From these preliminary structure-activity relationship (SAR) studies, we identified a pronounced sequence dependence for efficient plasma HDL remodeling (vide infra).
Human plasma remodeling: All procedures involving human samples were approved by TSRI Institutional Review Board. Procedures were modified from those reported in Troutt et al., J. Lipid Res. 49, 581-587, 2008. Blood samples from normal healthy human donors were obtained from TSRI Normal Blood Donor Program. EDTA-anticoagulated whole blood was centrifuged at 1500×g for 15 min within 1 h of being drawn from the donor. The plasma layer was aliquoted and used immediately or frozen at −80° C. for future use. Peptide stock solutions were prepared at ˜15 mM peptide in 50% DMSO for initial screenings, or at ˜2 mM peptide in 10% sucrose for remodeling assays at lower concentrations (FIG. 1) and cholesterol efflux assays (FIG. 2). Plasma samples (30 μL) were treated with peptide stocks, and the samples were incubated at 37° C. for 0.5-1 h, and then quenched by adding 270 μL of 50% sucrose (1:9 dilution). Samples were mixed with 6× native loading buffer (125 mM tris, pH 6.8, 0.02% bromophenol, 20% glycerol), of which 6 μL was loaded onto a 4-20% polyacrylamide gel. The molecular weight ladder used was High Molecular Weight Calibration Kit (Amersham Biosciences, #17-0445-01). […] The films were scanned and quantified by densitometry using the program LabWorks (v. 4.0.0.8). […]

A further data set has as its system HDL in human plasma. The experiment in a line: pre-beta HDL ELISA assay: remodeling HDL in human plasma in vitro. It is filed as biochemical. The settings on record: for Pre-beta HDL generated (normalized level): pre-beta HDL ELISA. As for the experimental part:
First, various cyclic peptides, including the majority of compounds shown in FIG. 2, were assessed for activities for remodeling HDL in human plasma in vitro. Unlike western blot which was used to generate data shown in FIG. 2, here a pre-beta HDL ELISA assay was used to measure pre-beta HDL levels. Results from the assay are shown in Table 1, which lists the peptides in the order of their activities in remodeling HDL.
On the technique in general: ELISA stands for enzyme-linked immunosorbent assay.

Non-standard residues stand in square brackets, D forms with d. Residues, ends and D or L forms follow the SMILES beside them. dNMeW = CN[C@H](Cc1c[nH]c2ccccc12)C(=O)O; dNMeS = CN[C@H](CO)C(=O)O; Orn = NCCC[C@H](N)C(=O)O

For the compound “c[wL^MewSeQ^MesO] (cyclo([dW]L[dNMeW]S[dE]Q[dNMeS][Orn])) [SEQ ID NO:14]”, the “promotion of cellular cholesterol efflux (in words)” value (from here on “promotion”) in data set [1] is listed as “greatly diminished compared to the unmethylated parent, compound 4”. Besides, in the data set on human plasma HDL, the “plasma HDL remodeling to lipid-poor HDL (in words)” value (shortened to “plasma HDL remodeling”) was “greatly diminished compared to the unmethylated parent, compound 4”.

Turning to “c[wLwErQrE] (cyclo([dW]L[dW]E[dR]Q[dR]E); SMILES CC(C)C[C@@H]1NC(=O)[C@@H](Cc2c[nH]c3ccccc23)NC(=O)[C@H](CCC(=O)O)NC(=O)[C@@H](CCCNC(=N)N)NC(=O)[C@H](CCC(N)=O)NC(=O)[C@@H](CCCNC(=N)N)NC(=O)[C@H](CCC(=O)O)NC(=O)[C@@H](Cc2c[nH]c3ccccc23)NC1=O) [SEQ ID NO:37]”, in data set [1], the “promotion” value was “dramatically reduced compared to that of compound 1”. The “plasma HDL remodeling” value in the data set with human plasma HDL is “dramatically reduced compared to that of compound 1”.

In the case of `CC(C)C[C@@H]1NC(=O)[C@@H](Cc2c[nH]c3ccccc23)NC(=O)[C@H](CCCN)NC(=O)[C@@H](CO)NC(=O)[C@H](CCC(N)=O)NC(=O)[C@@H](CCC(=O)O)NC(=O)[C@H](CO)NC(=O)[C@@H](Cc2c[nH]c3ccccc23)NC1=O` [SEQ ID NO:4, c[wLwSeQsO]] (cyclo([dW]L[dW]S[dE]Q[dS][Orn])), in the data set with HDL in human plasma, the “Pre-beta HDL generated (normalized level)” value is 0.59. Also, in data set [1] (J774 cells in the efflux assay), the “toxicity based on the cellular morphology and density” value is reported as “did not appear to be toxic”. Further, the “promotion” value in data set [1] is listed as “only marginally less effective than the α-helical apoA-I mimetic 4F”.

As to “Ac-wLwSeQsO-NH2 (Ac-[dW]L[dW]S[dE]Q[dS][Orn]-NH2) [SEQ ID NO:45, acetylated linear peptide]”, the “promotion” value in data set [1] is “failed to remodel plasma HDL or promote cholesterol efflux”. For the same compound, in the data set with human plasma HDL, the “plasma HDL remodeling” value is recorded as “failed to remodel plasma HDL”.

Consider “c[WIWrEqEr] (cyclo(WIW[dR]E[dQ]E[dR]); SMILES CC[C@H](C)[C@@H]1NC(=O)[C@H](Cc2c[nH]c3ccccc23)NC(=O)[C@@H](CCCNC(=N)N)NC(=O)[C@H](CCC(=O)O)NC(=O)[C@@H](CCC(N)=O)NC(=O)[C@H](CCC(=O)O)NC(=O)[C@@H](CCCNC(=N)N)NC(=O)[C@H](Cc2c[nH]c3ccccc23)NC1=O) [SEQ ID NO:50]”, for which the “activity in generating pre-beta HDL (in words)” value in the data set on HDL in human plasma is reported as “excellent activities in generating plasma pre-beta HDL”.

In the case of “51 (cyclo([dF]W[dW]Y[dT]R[dH]S); SMILES C[C@H](O)[C@H]1NC(=O)[C@H](Cc2ccc(O)cc2)NC(=O)[C@@H](Cc2c[nH]c3ccccc23)NC(=O)[C@H](Cc2c[nH]c3ccccc23)NC(=O)[C@@H](Cc2ccccc2)NC(=O)[C@H](CO)NC(=O)[C@@H](Cc2c[nH]cn2)NC(=O)[C@H](CCCNC(=N)N)NC1=O) [compound 51]”, in the data set on HDL in human plasma, the “Pre-beta HDL generated (normalized level)” value worked out at 1.44.

“69 (cyclo([dL]W[dL]H[dE]K[dK]H); SMILES CC(C)C[C@H]1NC(=O)[C@H](Cc2c[nH]cn2)NC(=O)[C@@H](CCCCN)NC(=O)[C@H](CCCCN)NC(=O)[C@@H](CCC(=O)O)NC(=O)[C@H](Cc2c[nH]cn2)NC(=O)[C@@H](CC(C)C)NC(=O)[C@H](Cc2c[nH]c3ccccc23)NC1=O) [compound 69]”: the “Pre-beta HDL generated (normalized level)” value with HDL in human plasma was determined as 0.07.

As for “34 (cyclo([dY]D[dY]W[dY]H[dA]K); not fully specified (residues 2, 4, 6, 8)) [compound 34]”, the “Pre-beta HDL generated (normalized level)” value in the data set with HDL in human plasma came out at 0.08.
